The nature of test [1]: Binding affinity against Opioid receptor delta 1 was measured in the guinea pig brain membranes using [3H]DADLE in the presence of 1 uM unlabeled DAMGO as radioligand.
Test in test [2]: as above
This is another data set of the same source.

SMILES strings stand for the structures.

What is called Ki is a measure of affinity in units of concentration, obtained from inhibition or displacement. Regarding `Oc1ccc2c3c1O[C@H]1c4sc5c(c4C[C@@]4(O)C(C2)N(CC2CC2)CC[C@]314)C[C@@]1(O)C2Cc3ccc(O)c4c3[C@@]1(CCN2CC1CC1)[C@H]5O4` [bis(4-cyclopropylmethyl-12-oxa-4-azapentacyclo[9.6.1.01,13.05,17.07,18]octadeca-7(18),8,10,14-tetraene-10,17-diol)thiphene], in test [1], the Ki was 0.077 µM.

Turning to `Oc1ccc2c3c1O[C@H]1C4=C(C[C@@]5(O)C(C2)N(CC2CC2)CC[C@]315)C(c1ccccc1)C1=C(O4)[C@@H]2Oc3c(O)ccc4c3[C@@]23CCN(CC2CC2)C(C4)[C@]3(O)C1` (some centres not stated) [bis(4-cyclopropylmethyl-12-oxa-4-azapentacyclo[9.6.1.01,13.05,17.07,18]octadeca-7(18),8,10,14-tetraene-10,17-diol)4-phenyl-4H-pyran], the inhibition constant Ki in test [2] was 0.01 µM.
